Laboratory results reported in patent US20250034212A1, “PEPTIDE” (PEPTIDREAM INC., priority 2021, published 2025).
Starred links: 1 amine or outer side, 2 acyl side, 3 side chain; linkers in the order of their positions; H or OH if unused. Positions of bridges follow the written chain, without caps; N, C: chain ends. Non-standard residues stand in square brackets, D forms with d. Residues, ends and D or L forms follow the SMILES beside them. Groups on a side chain read outwards from the residue. *: point of attachment. CH3O(CH2CH2O)7C2H4CO = COCCOCCOCCOCCOCCOCCOCCOCCC(=O)*; Meglumine = CN(C[C@H](O)[C@@H](O)[C@H](O)[C@H](O)CO)*; Piperazinyl(4-CH2COOH) = O=C(O)CN1CCN(*)CC1; 1Nal = N[C@@H](Cc1cccc2ccccc12)C(=O)O; Gly(NCH2CH2Ph) = O=C(O)CNCCc1ccccc1; 4Pal = N[C@@H](Cc1ccncc1)C(=O)O; CO = O=C([*:1])[*:2]

Key:
recombinant human TGF-β1 [1] = target: T1, recombinant human TGF-β1 (Homo sapiens, UniProt P01137); experiment: SPR intermolecular interaction test, TGF-β1 immobilized on CM3 sensor chip (Biacore T200); type: binding; details: Single Cycle Kinetics, human TGF-β1
T1 construct: purchased R&D systems
Method: In this Example, (1) the activity of binding to TGF-β for various peptides consisting of the amino acid sequences set forth in SEQ ID NOs: 2-33 synthesized in Examples 1 to 5 and 7 was evaluated. (2) The activity and selectivity of binding of the peptide consisting of the amino acid sequence set forth in SEQ ID NO: 13 synthesized in Example 2 against two isoforms of TGF-β (TGF-β1 and β2) were checked. For this purpose, the intermolecular interaction of each peptide against TGF-β was tested by surface plasmon resonance (SPR) in the method described below. Specific test methods are described below.
A CM3 sensor chip (Global Life Science Technologies Japan Co., Ltd.) was inserted into a BiacoreT200 (Global Life Science Technologies Japan Co., Ltd.). Three priming runs were performed using running buffer: HBS-EP+ (Global Life Science Technologies Japan Co., Ltd.). The system was then equilibrated at a flow rate of 30 μL/min.
Subsequently, 50 μL of 60 mM EDC solution (Global Life Science Technologies Japan Co., Ltd.) and 50 μL of 650 mM NHS solution (Global Life Science Technologies Japan Co., Ltd.) were mixed. Next, the reaction was carried out at a flow rate of 10 μL/min for 420 seconds. Then, 150 μL of 0.2 μM TGF-β solution diluted in 10 mM acetic acid solution (pH 5.0) was prepared and reacted at a flow rate of 10 μL/min for 420 seconds to immobilize TGF-β on the CM3 sensor chip. TGF-β was human-derived TGF-β1 or β2 (recombinant human TGF-β1, 2) and was obtained from R&D systems. After immobilization, capping was performed by reacting with 1.0 M ethanolamine aqueous solution (Global Life Science Technologies Japan Co., Ltd.) at a flow rate of […] for 420 seconds.
A liquid prepared by dissolving each peptide at 10 mM in DMSO solution was diluted with running buffer to prepare a peptide-dissolved solution at a final concentration of 10 μM. Subsequently, 50 nM, 25 nM, 12.5 nM, 5 nM, and 2.5 nM peptide solutions were prepared. Using the above samples, the kinetics of each peptide against TGF-β was obtained by SPR measurement.
The kinetics evaluation model was Single Cycle Kinetics, and curve fitting was performed using Biacore T200 Evaluation Software Version 3.0 (Global Life Science Technologies Japan Co., Ltd.). The binding of various peptides to TGF-β was evaluated by performing least-squares curve fitting on the obtained sensorgram to calculate the KD value.

recombinant human TGF-β1 [2] = target: T1, recombinant human TGF-β1; experiment: SBE reporter assay in SBE reporter-HEK293 cells, TGF-β1 stimulation; type: cell-based; details: TGF-β1 0.13 nM, 18 hours; for inhibition at 62 pM: peptide 0.062 nM; for inhibition at 0.000185 µM: peptide 0.185 nM; for inhibition at 0.00056 µM: peptide 0.56 nM; for inhibition at 0.0017 µM: peptide 1.7 nM; for inhibition at 0.005 µM: peptide 5.0 nM; for inhibition at 0.015 µM: peptide 15.0 nM
Method in brief: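 SBE luciferase reporter HEK293 cells in 0.5% FBS medium, preincubated 20 min with peptide, then stimulated 18 h with 0.13 nM recombinant human TGF-β1. Luminescence read; inhibition scaled with maximal TGF-β signal as 0% and unstimulated as 100%.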

T1 sequence (P01137 279-390 limits assumed): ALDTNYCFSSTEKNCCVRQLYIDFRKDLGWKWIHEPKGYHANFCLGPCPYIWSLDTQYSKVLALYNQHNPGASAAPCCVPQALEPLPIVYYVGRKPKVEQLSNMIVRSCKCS

Kd (recombinant human TGF-β1 [1]) [nM]	inhibition at 62 pM (recombinant human TGF-β1 [2]) [%]	inhibition at 0.000185 µM (recombinant human TGF-β1 [2]) [%]	inhibition at 0.00056 µM (recombinant human TGF-β1 [2]) [%]	inhibition at 0.0017 µM (recombinant human TGF-β1 [2]) [%]	inhibition at 0.005 µM (recombinant human TGF-β1 [2]) [%]	inhibition at 0.015 µM (recombinant human TGF-β1 [2]) [%]	SMILES
1.13	10.9	14.3	29.9	52.5	80.8	95.2	CC(C)[C@@H]1NC(=O)CN(CCc2ccccc2)C(=O)[C@H](CCCCNC(=O)N(C)C[C@H](O)[C@@H](O)[C@H](O)[C@H](O)CO)NC(=O)[C@H](CC(=O)O)NC(=O)[C@H](Cc2ccncc2)NC(=O)[C@H](C(C)C)NC(=O)[C@H](CC(N)=O)NC(=O)[C@H](CCCCNC(=O)N(C)C[C@H](O)[C@@H](O)[C@H](O)[C@H](O)CO)NC(=O)[C@H](C(C)C)NC(=O)[C@H](Cc2cccc3ccccc23)NC(=O)[C@H](Cc2ccccc2)NC(=O)CSC[C@@H](C(=O)NCC(N)=O)NC(=O)[C@H](CCC(=O)O)NC(=O)[C@H](Cc2c[nH]cn2)NC(=O)[C@H](Cc2ccc(O)cc2)NC(=O)[C@H](Cc2cccc3ccccc23)NC1=O [TGFb1_030] ({CH2CO}-F[1Nal]VK([CO-Meglumine])NV[4Pal]DK([CO-Meglumine])[Gly(NCH2CH2Ph)]V[1Nal]YHECG-NH2; thioether N-16)
0.91	9.29	20.1	51.9	84.9	96.7	99.1	COCCOCCOCCOCCOCCOCCOCCOCCC(=O)NCCCC[C@H](NC(=O)CNC(=O)[C@@H]1CSCC(=O)N[C@@H](Cc2ccccc2)C(=O)N[C@@H](Cc2cccc3ccccc23)C(=O)N[C@@H](C(C)C)C(=O)N[C@@H](C(C)C)C(=O)N[C@@H](CC(N)=O)C(=O)N[C@@H](C(C)C)C(=O)N[C@@H](Cc2ccncc2)C(=O)N[C@@H](CC(=O)O)C(=O)N[C@@H](CC(=O)O)C(=O)N(CCc2ccccc2)CC(=O)N[C@@H](C(C)C)C(=O)N[C@@H](Cc2cccc3ccccc23)C(=O)N[C@@H](Cc2ccc(O)cc2)C(=O)N[C@@H](Cc2c[nH]cn2)C(=O)N[C@@H](CCCCNC(=O)N2CCN(CC(=O)O)CC2)C(=O)N1)C(N)=O [TGFb1_031] ({CH2CO}-F[1Nal]VVNV[4Pal]DD[Gly(NCH2CH2Ph)]V[1Nal]YHK([CO-Piperazinyl(4-CH2COOH)])CGK(CH3O(CH2CH2O)7C2H4CO)-NH2; thioether N-16)
